Results from patent publication US20100204203A1, “Chemical Compounds 637: Pyridopyrimidinediones as PDE4 Inhibitors” (priority 2007, published 2010).

molecular target: recombinant Human Phosphodiesterase B2 (PDE4B2) (Homo sapiens, UniProt Q07343); experiment: Human Phosphodiesterase B2 Radiometric Assay (yttrium silicate SPA beads, [3H]cyclic AMP); type: biochemical; conditions: at 0.32 uM
Summary of the method: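 Compounds were preincubated 30 min at 30 °C with 0.1 mg/mL PDE4B2 in 50 mM HEPES pH 7.5, 8.3 mM MgCl2, 1.7 mM EGTA, 0.01% Brij 35. Then 8 nM [3H]cAMP was added for 20 min, stopped with yttrium silicate SPA beads plus 18 mM ZnSO4 capturing product 5′AMP; pIC50 by curve fitting.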

Chain of recombinant Human Phosphodiesterase B2 (PDE4B2) (Q07343 1-564 isoform Q07343-2): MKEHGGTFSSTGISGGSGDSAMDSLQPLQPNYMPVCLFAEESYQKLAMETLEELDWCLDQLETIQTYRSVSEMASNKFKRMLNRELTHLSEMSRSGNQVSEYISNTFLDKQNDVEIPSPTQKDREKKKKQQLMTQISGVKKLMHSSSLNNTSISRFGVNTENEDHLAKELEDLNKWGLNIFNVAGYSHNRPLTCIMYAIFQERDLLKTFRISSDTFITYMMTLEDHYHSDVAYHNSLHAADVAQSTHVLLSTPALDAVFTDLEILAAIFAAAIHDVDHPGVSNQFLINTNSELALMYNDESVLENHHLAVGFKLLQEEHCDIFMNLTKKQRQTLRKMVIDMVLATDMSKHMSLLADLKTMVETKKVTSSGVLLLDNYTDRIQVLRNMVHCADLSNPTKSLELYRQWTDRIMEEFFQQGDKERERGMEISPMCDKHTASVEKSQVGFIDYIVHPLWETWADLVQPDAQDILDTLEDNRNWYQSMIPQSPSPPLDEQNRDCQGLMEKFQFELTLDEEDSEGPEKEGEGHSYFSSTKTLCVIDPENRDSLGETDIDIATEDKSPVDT

PDE4B2 (percent at a single concentration, printed in the pIC50 column) [% at 0.32 uM]	SMILES
50	CN1CCC(n2c(=O)n([C@H]3CC[C@@H](NC(=O)c4cn5cc(F)ccc5n4)CC3)c(=O)c3cc(F)cnc32)CC1 [Example 40, 6-fluoro-N-{cis-4-[6-fluoro-1-(1-methylpiperidin-4-yl)-2,4-dioxo-1,4-dihydropyrido[2,3-d]pyrimidin-3(2H)-yl]cyclohexyl}imidazo[1,2-c]pyridine-2-carboxamide]

same assay, conditions: recombinant human PDE4B2, radiometric SPA assay, 8 nM [3H]cyclic AMP; read-out: PDE4B2 pIC50 (converted)

IC50 [pM]	SMILES
3.16	C[C@@H]1CN(Cc2ccc(-c3cccc(-n4c(=O)n([C@H]5CC[C@@H](NC(=O)c6cn7c(n6)CCCC7)CC5)c(=O)c5cc(F)cnc54)c3)cc2)C[C@H](C)O1 [Example 138, N-{cis-4-[1-(4′-{[(2R,6S)-2,6-dimethylmorpholin-4-yl]methyl}biphenyl-3-yl)-6-fluoro-2,4-dioxo-1,4-dihydxopyrido[2,3-d]pyrimidin-3(2H)-yl]cyclohexyl}-5,6,7,8-tetrahydroimidazo[1,2-a]pyridine-2-carboxamide]
398	CC(=O)N[C@H]1CC[C@@H](n2c(=O)c3cc(F)cnc3n(-c3cccc(-c4ccccc4)c3)c2=O)CC1 [Example 65, N-[cis-4-(1-biphenyl-3-yl-6-fluoro-2,4-dioxo-1,4-dihydropyrido[2,3-d]pyrimidin-3(2H)-yl)cyclohexyl]acetamide]
10	O=C(N[C@H]1CC[C@@H](n2c(=O)c3cc(F)cnc3n(-c3cccc(-c4ccc(CN5CCC(N6CCCCC6)CC5)cc4)c3)c2=O)CC1)c1cnc2ccccc2n1 [Example 296, N-{cis-4-[1-[4′-(1,4′-bipiperidin-1′-ylmethyl)biphenyl-3-yl]-6-fluoro-2,4-dioxo-1,4-dihydropyrido[2,3-d]pyrimidin-3(2H)-yl]cyclohexyl} quinoxaline-2-carboxamide]
79.4	O=C(N[C@H]1CC[C@@H](n2c(=O)c3cc(F)cnc3n(-c3cccc(-c4ccc(C(F)(F)F)cc4)c3)c2=O)CC1)c1cn2cc(F)ccc2n1 [Example 29, 6-fluoro-N-{cis-4-[6-fluoro-2,4-dioxo-1-[4′-(trifluoromethyl)biphenyl-3-yl]-1,4-dihydropyrido[2,3-d]pyrimidin-3(2H)-yl]cyclohexyl}imidazo[1,2-a]pyridine-2-carboxamide.]
50.1	Cc1cnc(C(=O)N[C@H]2CC[C@@H](n3c(=O)c4cc(F)cnc4n(-c4cccc(-c5ccc(CN6CCN(C7CCCC7)CC6)cc5)c4)c3=O)CC2)cn1 [Example 288, N-{cis-4-[1-{4′-[(4-cyclopentylpiperazin-1-yl)methyl]biphenyl-3-yl}-6-fluoro-2,4-dioxo-1,4-dihydropyrido[2,3-d]pyrimidin-3(2H)-yl]cyclohexyl}-5-methylpyrazine-2-carboxamide]
39.8	CC(C)N1CCN(Cc2ccc(-c3cccc(-n4c(=O)n([C@H]5CC[C@@H](NC(=O)CN6CCCCC6)CC5)c(=O)c5cc(F)cnc54)c3)cc2)CC1 [Example 237, N-{cis-4-[6-fluoro-1-{4′-[(4-isopropylpiperazin-1-yl)methyl]biphenyl-3-yl}-2,4-dioxo-1,4-di-hydropyrido[2,3-d]pyrimidin-3(2H)-yl]cyclohexyl}-2-piperidin-1-ylacetamide]
6310	O=C(N[C@H]1CC[C@@H](n2c(=O)c3cc(F)cnc3n(-c3cccc(-c4ccccc4C(=O)O)c3)c2=O)CC1)c1cn2cc(F)ccc2n1 [Example 60, 3′-[6-fluoro-3-(cis-4-{[(6-fluoroimidazo[1,2-a]pyridin-2-yl)carbonyl]amino}cyclohexyl)-2,4-dioxo-3,4-dihydropyrido[2,3-d]pyrimidin-1(2H)-yl]biphenyl-2-carboxylic acid]
200	Cn1cc(CN[C@H]2CC[C@@H](n3c(=O)c4cc(F)cnc4n(-c4cccc(-c5ccc(O)cc5CN5CCOCC5)c4)c3=O)CC2)c(-c2ccccc2)n1 [Example 247, 6-Fluoro-1-[4′-hydroxy-2′-(morpholin-4-ylmethyl)biphenyl-3-yl]-3-(cis-4-{[(1-methyl-3-phenyl-1H-pyrazol-4-yl)methyl]amino}cyclohexyl)pyrido[2,3-d]pyrimidine-2,4(1H,3H)-dione]
200	CCN(CC)Cc1ccc(-c2cccc(-n3c(=O)n([C@H]4CC[C@@H](NC(=O)C5(N(C)C)CC5)CC4)c(=O)c4cc(F)cnc43)c2)cc1 [Example 127, N-{cis-4-[1-{4′-[(diethylamino)methyl]biphenyl-3-yl}-6-fluoro-2,4-dioxo-1,4-dihydropyrido[2,3-d]pyrimidin-3(2H)-yl]cyclohexyl}-1-(dimethylamino)cyclopropanecarboxamide]
12.6	CSc1cccc(-c2cccc(-n3c(=O)n([C@H]4CC[C@@H](NC(=O)c5cn6cc(F)ccc6n5)CC4)c(=O)c4cc(F)cnc43)c2)c1 [Example 15, 6-fluoro-N-{cis-4-[6-fluoro-1-[3′-(methylthio)biphenyl-3-yl]-2,4-dioxo-1,4-dihydropyrido[2,3-d]pyrimidin-3(2H)-yl]cyclohexyl}imidazo[1,2-a]pyridine-2-carboxamide.]
251	CN(Cc1cc(O)ccc1-c1cccc(-n2c(=O)n([C@H]3CC[C@@H](NCc4cn5cc(F)ccc5n4)CC3)c(=O)c3cc(F)cnc32)c1)C1CC1 [Example 323, 1-(2′-{[cyclopropyl(methyl)amino]methyl}-4′-hydroxybiphenyl-3-yl)-6-fluoro-3-(cis-4-{[(6-fluoroimidazo[1,2-a]pyridin-2-yl)methyl]amino}cyclohexyl)pyrido[2,3-d]pyrimidine-2,4(1H,3H)-dione]
10	C[C@H]1COCCN1Cc1cc(O)ccc1-c1cccc(-n2c(=O)n([C@H]3CC[C@@H](NCc4cn5cc(F)ccc5n4)CC3)c(=O)c3cc(F)cnc32)c1 [Example 317, 6-fluoro-3-(cis-4-{[(6-fluoroimidazo[1,2-a]pyridin-2-yl)methyl]amino}cyclohexyl)-1-(4′-hydroxy-2′-{[(3S)-3-methylmorpholin-4-yl]methyl}biphenyl-3-yl)pyrido[2,3-d]pyrimidine-2,4(1H,3H)-dione]
25.1	O=C(N[C@H]1CC[C@@H](n2c(=O)c3cc(F)cnc3n(-c3cccc(-c4ccc(O)cc4)c3)c2=O)CC1)c1cn2cc(F)ccc2n1 [Example 22, 6-fluoro-N-{cis-4-[6-fluoro-1-(4′-hydroxybiphenyl-3-yl)-2,4-dioxo-1,4-dihydropyrido[2,3-d]pyrimidin-3(2H)-yl]cyclohexyl}imidazo[1,2-a]pyridine-2-carboxamide.]
15.8	CN(C)C1(C(=O)N[C@H]2CC[C@@H](n3c(=O)c4cc(F)cnc4n(-c4cccc(-c5ccccc5)c4)c3=O)CC2)CC1 [Example 53, N-[cis-4-(1-biphenyl-3-yl-6-fluoro-2,4-dioxo-1,4-dihydropyrido[2,3-d]pyrimidin-3(2H)-yl)cyclohexyl]-1-(dimethylamino)cyclopropanecarboxamide]
15.8	CCN(CC)CCN(C)Cc1ccc(-c2cccc(-n3c(=O)n([C@H]4CC[C@@H](NC(=O)c5cn6c(n5)CCCC6)CC4)c(=O)c4cc(F)cnc43)c2)cc1 [Example 225, N-{cis-4-[1-(4′-{[[2-(diethylamino)ethyl](methyl)amino]methyl}biphenyl-3-yl)-6-fluoro-2,4-dioxo-1,4-dihydropyrido[2,3-d]pyrimidin-3(2H)-yl]cyclohexyl}-5,6,7,8-tetrahydroimidazo[1,2-a]pyridine-2-carboxamide]
39.8	CCOCCNCc1ccc(-c2cccc(-n3c(=O)n([C@H]4CC[C@@H](NC(=O)c5cn6c(n5)CCCC6)CC4)c(=O)c4cc(F)cnc43)c2)cc1 [Example 123, N-{cis-4-[1-(4′-{[(2-ethoxyethyl)amino]methyl}biphenyl-3-yl)-6-fluoro-2,4-dioxo-1,4-dihydropyrido[2,3-d]pyrimidin-3(2H)-yl]cyclohexyl}-5,6,7,8-tetrahydroimidazo[1,2-a]pyridine-2-carboxamide]
10	CN(C)Cc1ccccc1-c1cccc(-n2c(=O)n([C@H]3CC[C@@H](NC(=O)c4cn5cc(F)ccc5n4)CC3)c(=O)c3cc(F)cnc32)c1 [Example 33, N-{cis-4-[1-{2′-[(dimethylamino)methyl]biphenyl-3-yl}-6-fluoro-2,4-dioxo-1,4-dihydropyrido[2,3-d]pyrimidin-3(2H)-yl]cyclohexyl}-6-fluoroimidazo[1,2-c]pyridine-2-carboxamide.]
50100	CN(C)Cc1ccccc1-c1cccc(-n2c(=O)n([C@H]3CC[C@@H](NC(=O)[C@H]4CCCN4C)CC3)c(=O)c3cc(F)cnc32)c1 [Example 88, N-{cis-4-[1-{2′-[(dimethylamino)methyl]biphenyl-3-yl}-6-fluoro-2,4-dioxo-1,4-dihydropyrido[2,3-d]pyrimidin-3(2H)-yl]cyclohexyl}-1-methyl-D-prolinamide]
63.1	O=C(N[C@H]1CC[C@@H](n2c(=O)c3cc(F)cnc3n(-c3cccc(-c4ccc(CN5CCNCC5)cc4O)c3)c2=O)CC1)c1cn2cc(F)ccc2n1 [Example 274, 6-Fluoro-N-{cis-4-[6-fluoro-1-[2′-hydroxy-4′-(piperazin-1-ylmethyl)biphenyl-3-yl]-2,4-dioxo-1,4-dihydropyrido[2,3-d]pyrimidin-3(2H)-yl]cyclohexyl}imidazo[1,2-a]pyridine-2-carboxamide]
3160	O=C(N[C@H]1CC[C@@H](n2c(=O)c3cc(F)cnc3n(CCc3ccccc3)c2=O)CC1)c1cn2cc(F)ccc2n1 [Example 38, 6-fluoro-N-{cis-4-[6-fluoro-2,4-dioxo-1-(2-phenylethyl)-1,4-dihydropyrido[2,3-d]pyrimidin-3(2H)-yl]cyclohexyl}imidazo[1,2-a]pyridine-2-carboxamide]
6310	CC(C)CCCC(C)n1c(=O)n([C@H]2CC[C@@H](NC(=O)c3cn4cc(F)ccc4n3)CC2)c(=O)c2cc(F)cnc21 (stereo partly drawn) [Example 36, N-{cis-4-[1-(1,5-dimethylhexyl)-6-fluoro-2,4-dioxo-1,4-dihydropyrido[2,3-d]pyrimidin-3(2H)-yl]cyclohexyl}-6-fluoroimidazo[1,2-a]pyridine-2-carboxamide]
